Numbered stars: 1 amine (or outer) side, 2 acyl side, 3 side chain; on linkers, the order of the positions; unused ones are H or OH. Bridge positions count the residues as written; N and C are the ends. Square brackets hold non-standard residues; d marks the D form. Side chains are listed from the residue outwards. Peptide text beside a SMILES is read from it. I, II: the chains in the order shown. * marks the point of attachment. C18 diacid = O=C(O)CCCCCCCCCCCCCCCCC(=O)*; γGlu = O=C(O)[C@H](CCC(=O)[*:2])N[*:1]; Ac4c = NC1(C(=O)O)CCC1; AEEA = NCCOCCOCC(=O)O; Aib = CC(C)(N)C(=O)O
target: T1, human GLP-1 receptor (Homo sapiens, UniProt P43220); experiment: GLP-1 receptor binding, 125I-GLP-1 displacement SPA on isolated membranes; details: displacement of 125I-GLP-1 from membranes; read-out: IC50 GLP-1R
T1 construct: expressed in transfected cells; host or cells: BHK cells (parent BHKTS13), clone FCW467-12A/KZ10-1, with CRE luciferase
Summary of the method: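 SPA displacement of 125I-GLP-1(7-36)NH2 from membranes of BHK cells expressing human GLP-1 receptor, with WGA beads, in 50 mM HEPES, 5 mM EGTA, 5 mM MgCl2, 0.005% Tween 20, pH 7.4. Incubated 2 h at 30°C; IC50 by non-linear regression, run at ≤0.001% or 2.0% final serum albumin.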

T1 sequence (P43220 24-463): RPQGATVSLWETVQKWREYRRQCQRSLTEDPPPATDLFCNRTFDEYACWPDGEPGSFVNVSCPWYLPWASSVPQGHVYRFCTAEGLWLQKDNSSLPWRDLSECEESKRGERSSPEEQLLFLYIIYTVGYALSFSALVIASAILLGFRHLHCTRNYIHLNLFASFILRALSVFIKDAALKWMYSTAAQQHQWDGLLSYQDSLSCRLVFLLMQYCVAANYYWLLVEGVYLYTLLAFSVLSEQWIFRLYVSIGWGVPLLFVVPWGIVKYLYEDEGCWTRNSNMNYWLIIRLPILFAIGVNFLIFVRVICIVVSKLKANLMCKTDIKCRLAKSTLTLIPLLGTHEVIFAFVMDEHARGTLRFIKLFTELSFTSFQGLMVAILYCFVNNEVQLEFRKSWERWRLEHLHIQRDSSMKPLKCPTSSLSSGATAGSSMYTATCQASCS

IC50 [pM] | SMILES
200 | CC(C)C[C@H](NC(=O)[C@H](Cc1ccc(O)cc1)NC(=O)[C@H](CCCCN)NC(=O)[C@H](CO)NC(=O)[C@H](CC(C)C)NC(=O)[C@H](CC(=O)O)NC(=O)[C@H](CO)NC(=O)[C@@H](NC(=O)[C@H](Cc1ccccc1)NC(=O)[C@@H](NC(=O)CNC(=O)[C@H](CCC(N)=O)NC(=O)C(C)(C)NC(=O)[C@@H](N)Cc1c[nH]cn1)[C@@H](C)O)[C@@H](C)O)C(=O)N[C@@H](CCC(=O)O)C(=O)N[C@@H](CO)C(=O)N[C@@H](CCCCN)C(=O)N[C@@H](CCCNC(=N)N)C(=O)N[C@@H](C)C(=O)N[C@@H](CCCNC(=N)N)C(=O)N[C@@H](CO)C(=O)N[C@@H](Cc1ccccc1)C(=O)N[C@H](C(=O)N[C@@H](CCC(N)=O)C(=O)N[C@@H](Cc1c[nH]c2ccccc12)C(=O)N[C@@H](CC(C)C)C(=O)N[C@@H](CC(C)C)C(=O)N[C@@H](CCCCNC(=O)CC[C@H](NC(=O)CC[C@H](NC(=O)[C@H](CO)NC(=O)[C@H](CCC(=O)O)NC(=O)[C@H](CO)NC(=O)CC[C@H](NC(=O)CC[C@H](NC(=O)CCCCCCCCCCCCCCCCC(=O)O)C(=O)O)C(=O)O)C(=O)O)C(=O)O)C(=O)N[C@H](C(N)=O)[C@@H](C)O)C(C)C [Example 69, N^ε28-[(4S)-4-carboxy-4-[[(4S)-4-carboxy-4-[[(2S)-2-[[(2S)-4-carboxy-2-[[(2S)-2-[[(4S)-4-carboxy-4-[[(4S)-4-carboxy-4-(17-carboxyheptadecanoylamino)butanoyl]amino]butanoyl]amino]-3-hydroxypropanoyl]amino]butanoyl]amino]-3-hydroxypropanoyl]amino]butanoyl]amino]butanoyl]-[Aib2,Leu10,Glu15,Lys17,Arg20,Ser21,Leu27,Lys28]-Glucagon amide] (H-H[Aib]QGTFTSDLSKYLESKRARSFVQWLLK([γGlu-γGlu-Ser-Glu-Ser-γGlu-γGlu-C18 diacid])T-NH2; N-terminus assumed)
200 | CC(C)C[C@H](NC(=O)[C@H](Cc1ccc(O)cc1)NC(=O)[C@H](CCCCN)NC(=O)[C@H](CO)NC(=O)[C@H](CC(C)C)NC(=O)[C@H](CC(=O)O)NC(=O)[C@H](CO)NC(=O)[C@@H](NC(=O)[C@H](Cc1ccccc1)NC(=O)[C@@H](NC(=O)CNC(=O)[C@H](Cc1c[nH]cn1)NC(=O)C(C)(C)NC(=O)[C@@H](N)Cc1c[nH]cn1)[C@@H](C)O)[C@@H](C)O)C(=O)N[C@@H](CCC(=O)O)C(=O)N[C@@H](CO)C(=O)N[C@@H](CCCNC(=N)N)C(=O)N[C@@H](CCCNC(=N)N)C(=O)N[C@@H](C)C(=O)N[C@@H](CCCNC(=N)N)C(=O)N[C@@H](CC(=O)O)C(=O)N[C@@H](Cc1ccccc1)C(=O)N[C@H](C(=O)N[C@@H](CCC(N)=O)C(=O)N[C@@H](Cc1c[nH]c2ccccc12)C(=O)N[C@@H](CC(C)C)C(=O)N[C@@H](CC(C)C)C(=O)N[C@@H](CCCCNC(=O)CNC(=O)[C@H](CO)NC(=O)[C@H](CCC(=O)O)NC(=O)CNC(=O)[C@H](CO)NC(=O)CC[C@H](NC(=O)CC[C@H](NC(=O)CCCCCCCCCCCCCCCCC(=O)O)C(=O)O)C(=O)O)C(=O)N[C@H](C(N)=O)[C@@H](C)O)C(C)C [Example 37, N^ε28-[2-[[(2S)-2-[[(2S)-4-carboxy-2-[[2-[[(2S)-2-[[(4S)-4-carboxy-4-[[(4S)-4-carboxy-4-(17-carboxyheptadecanoylamino)butanoyl]amino]butanoyl]amino]-3-hydroxypropanoyl]amino]acetyl]amino]butanoyl]amino]-3-hydroxypropanoyl]amino]acetyl]-[Aib2,His3,Leu10,Glu15, Arg20,Leu27,Lys28]-Glucagon amide] (I: H-H[Aib]HGTFTSDLSKYLESRRARDFVQWLLKT-NH2 / II: {C18 diacid-γGlu-γGlu}-SGESG; amide I:28-II:C; N-terminus assumed)

Continued, compound first:

SMILES | IC50 [pM]
CC(C)C[C@H](NC(=O)[C@H](CC(=O)O)NC(=O)[C@H](CC(C)C)NC(=O)[C@H](Cc1ccc(O)cc1)NC(=O)[C@H](CCCCN)NC(=O)[C@H](CO)NC(=O)[C@H](CC(C)C)NC(=O)[C@H](CC(=O)O)NC(=O)[C@H](CO)NC(=O)[C@@H](NC(=O)[C@H](Cc1ccccc1)NC(=O)[C@@H](NC(=O)CNC(=O)[C@H](CCC(N)=O)NC(=O)C1(NC(=O)[C@@H](N)Cc2c[nH]cn2)CCC1)[C@@H](C)O)[C@@H](C)O)C(=O)N[C@@H](CCCNC(=N)N)C(=O)N[C@@H](CCCNC(=N)N)C(=O)N[C@@H](C)C(=O)N[C@@H](CCCNC(=N)N)C(=O)N[C@@H](CCC(=O)O)C(=O)N[C@@H](Cc1ccccc1)C(=O)N[C@H](C(=O)N[C@@H](CCC(N)=O)C(=O)N[C@@H](Cc1c[nH]c2ccccc12)C(=O)N[C@@H](CC(C)C)C(=O)N[C@@H](CC(C)C)C(=O)N[C@@H](CCCCNC(=O)CC[C@H](NC(=O)CC[C@H](NC(=O)COCCOCCNC(=O)COCCOCCNC(=O)CC[C@H](NC(=O)CC[C@H](NC(=O)CCCCCCCCCCCCCCCCC(=O)O)C(=O)O)C(=O)O)C(=O)O)C(=O)O)C(=O)N[C@H](C(N)=O)[C@@H](C)O)C(C)C [Example 49, N^ε28-[(4S)-4-carboxy-4-[[(4S)-4-carboxy-4-[[2-[2-[2-[[2-[2-[2-[[(4S)-4-carboxy-4-[[(4S)-4-carboxy-4-(17-carboxyheptadecanoylamino)butanoyl]amino]butanoyl]amino]ethoxy]ethoxy]acetyl]amino]ethoxy]ethoxy]acetyl]amino]butanoyl]amino]butanoyl]-[Acb2,Leu10,Leu16,Arg20,Glu21,Leu27,Lys28]-Glucagon amide] (H-H[Ac4c]QGTFTSDLSKYLDLRRAREFVQWLLK([γGlu-γGlu-AEEA-AEEA-γGlu-γGlu-C18 diacid])T-NH2; N-terminus assumed) | 400
CC(C)C[C@H](NC(=O)[C@H](Cc1c[nH]c2ccccc12)NC(=O)[C@H](C)NC(=O)[C@@H](NC(=O)[C@H](Cc1ccccc1)NC(=O)[C@H](CCC(=O)O)NC(=O)[C@H](CCCNC(=N)N)NC(=O)[C@H](C)NC(=O)[C@H](CCCNC(=N)N)NC(=O)[C@H](CCCNC(=N)N)NC(=O)[C@H](CO)NC(=O)[C@H](CCC(=O)O)NC(=O)[C@H](CC(C)C)NC(=O)[C@H](Cc1ccc(O)cc1)NC(=O)[C@H](CCCCN)NC(=O)[C@H](CO)NC(=O)[C@H](CC(C)C)NC(=O)[C@H](CC(=O)O)NC(=O)[C@H](CO)NC(=O)[C@@H](NC(=O)[C@H](Cc1ccccc1)NC(=O)[C@@H](NC(=O)CNC(=O)[C@H](Cc1c[nH]cn1)NC(=O)C(C)(C)NC(=O)[C@@H](N)Cc1c[nH]cn1)[C@@H](C)O)[C@@H](C)O)C(C)C)C(=O)N[C@@H](CC(C)C)C(=O)N[C@@H](CCCCNC(=O)CC[C@H](NC(=O)COCCOCCNC(=O)COCCOCCNC(=O)CC[C@H](NC(=O)CC[C@H](NC(=O)CCCCCCCCCCCCCCCCC(=O)O)C(=O)O)C(=O)O)C(=O)O)C(=O)N[C@H](C(N)=O)[C@@H](C)O [Example 31, N^ε28-[(4S)-4-carboxy-4-[[2-[2-[2-[[2-[2-[2-[[(4S)-4-carboxy-4-[[(4S)-4-carboxy-4-(17-carboxyheptadecanoylamino)butanoyl]amino]butanoyl]amino]ethoxy]ethoxy]acetyl]amino]ethoxy]ethoxy]acetyl]amino]butanoyl]-[Aib2,His3,Leu10,Glu15,Arg20,Glu21,Ala24,Leu27, Lys28]-Glucagon amide] (H-H[Aib]HGTFTSDLSKYLESRRAREFVAWLLK([γGlu-AEEA-AEEA-γGlu-γGlu-C18 diacid])T-NH2; N-terminus assumed) | 1500
CC(C)C[C@H](NC(=O)[C@H](CC(=O)O)NC(=O)[C@H](CC(C)C)NC(=O)[C@H](Cc1ccc(O)cc1)NC(=O)[C@H](CCCCN)NC(=O)[C@H](CO)NC(=O)[C@H](CC(C)C)NC(=O)[C@H](CC(=O)O)NC(=O)[C@H](CO)NC(=O)[C@@H](NC(=O)[C@H](Cc1ccccc1)NC(=O)[C@@H](NC(=O)CNC(=O)[C@H](CCC(N)=O)NC(=O)C1(NC(=O)[C@@H](N)Cc2c[nH]cn2)CCC1)[C@@H](C)O)[C@@H](C)O)C(=O)N[C@@H](CCCNC(=N)N)C(=O)N[C@@H](CCCNC(=N)N)C(=O)N[C@@H](C)C(=O)N[C@@H](CCCNC(=N)N)C(=O)N[C@@H](CC(=O)O)C(=O)N[C@@H](Cc1ccccc1)C(=O)N[C@H](C(=O)N[C@@H](CCC(N)=O)C(=O)N[C@@H](Cc1c[nH]c2ccccc12)C(=O)N[C@@H](CC(C)C)C(=O)N[C@@H](CC(C)C)C(=O)N[C@@H](CCCCNC(=O)CC[C@H](NC(=O)CC[C@H](NC(=O)COCCOCCNC(=O)COCCOCCNC(=O)CC[C@H](NC(=O)CC[C@H](NC(=O)CCCCCCCCCCCCCCCCC(=O)O)C(=O)O)C(=O)O)C(=O)O)C(=O)O)C(=O)N[C@H](C(N)=O)[C@@H](C)O)C(C)C [Example 45, N^ε28-[(4S)-4-carboxy-4-[[(4S)-4-carboxy-4-[[2-[2-[2-[[2-[2-[2-[[(4S)-4-carboxy-4-[[(4S)-4-carboxy-4-(17-carboxyheptadecanoylamino)butanoyl]amino]butanoyl]amino]ethoxy]ethoxy]acetyl]amino]ethoxy]ethoxy]acetyl]amino]butanoyl]amino]butanoyl]-[Acb2,Leu10,Leu16,Arg20,Leu27,Lys28]-Glucagon amide] (H-H[Ac4c]QGTFTSDLSKYLDLRRARDFVQWLLK([γGlu-γGlu-AEEA-AEEA-γGlu-γGlu-C18 diacid])T-NH2; N-terminus assumed) | 400

Reference: patent US9474790B2, “Stable, protracted GLP-1/glucagon receptor co-agonists for medical use” (Novo Nordisk A/S, priority 2013, dated 2016)
